# Measured values as given in publication PMC12249711, “Comprehensive Evaluation of 1H-Isoindole-1,3(2H)-Dione Derivatives: Pharmacokinetic Studies and Analgesic Potential in Various Pain Models” (International Journal of Molecular Sciences, 2025).
# Columns and labels:
# mice = assay: Formalin test; format: in vivo, Albino Swiss mice; conditions: for Reduction of pain response, inflammatory phase: phase II (15–30 min)
# Description: The pain reaction was induced by intraplantar (i.pl.) injection of 20 μL of 2.5% formalin solution into the right hind paw of the mouse (n = 136). […] Time (in seconds) spent on licking or biting the injected hind paw in selected intervals, 0–5 min (neurogenic phase) and 15–30 min (inflammatory phase), was measured in each group and was an indicator of nociceptive behavior. The procedure was based on the method described by with some modifications by.
# rats = assay: Carrageenan-induced mechanical hyperalgesia (pain pressure threshold, Randall-Selitto); format: in vivo, Wistar rats; conditions: for Pain Threshold: 20 mg/kg i.p., mean ± SEM, rats; for Increase in pain threshold: 20 mg/kg, vs control
# Description: The acute and local inflammation and paw edema was induced by intraplantar (i.pl.) injection of 0.1 mL of 1% carrageenan solution in PBS into the rat’s right hind paw, according to the modified method of Winter and Lence, as described previously; (n = 84). The paw volume was measured using the dislocation of the water column of the plethysmometer (Type a, 7140; Plethysmometer, Ugo Basile, Gemonio, Italy) before (V0) and at 1, 2, and 3 h (V1, V2, V3) after i.pl. carrageenan injection. […] Vehicle (1% Tween 80) was administered by the same route as the tested compounds.
# Furthermore, we performed the pain pressure threshold test to assess heightened sensitivity to mechanical stimuli. The experiment was conducted based on the method described by Randall and Selitto [58], with certain modifications. An analgesymeter (AnalgesyMeter 37215, Ugo Basile, Gemonio, Italy) was used to gradually apply increasing pressure (measured in grams) to the plantar surface of the right hind paw of the rat until paw withdrawal occurred. At this point, the intensity of the applied force (in grams) was recorded as the withdrawal threshold. The maximum force intensity was set at 250 g. Carrageenan induces a decrease in the nociceptive threshold in response to a mechanical stimulus, a condition referred to as hyperalgesia. For each rat, paw withdrawal thresholds were recorded both before (0 h) and 1, 2, and 3 h after carrageenan administration (i.e., 3.5 h after intraperitoneal pretreatment with the tested compounds). […] The analgesic effect of the tested compounds was assessed in comparison with the control group (1% Tween 80); the injection was performed intraperitoneally within 30 min of carrageenan administration. An analgesic effect occurs when the compound administered produces a pain response with greater pressure than the control group.
smiles,measurement,setting,value
"CC(C(=O)O)c1cccc(C(=O)c2ccccc2)c1 (stereo not drawn) [Ketoprofen, ketoprofen, reference compound]","Reduction of pain reaction (licking duration), neurogenic phase","mice; phase I (0–5 min), 20 mg/kg i.p., vs vehicle",59.7%
same,"Reduction of neurogenic pain, neurogenic phase","mice; phase I, ketoprofen doses other than 20 mg/kg",did not show a statistically significant reduction
same,"Reduction of pain response, inflammatory phase","mice; 10 mg/kg i.p., vs vehicle",23.2%
same,"Reduction of pain response, inflammatory phase","mice; 20 mg/kg i.p., vs vehicle",59.9%
same,"Reduction of pain response, inflammatory phase","mice; 50 mg/kg, vs vehicle",71.8%
same,Pain Threshold,rats; 0 h (before carrageenan),130 ± 2.9 g
same,Pain Threshold,rats; 1 h after carrageenan,155.8 ± 5.2 g
same,Pain Threshold,rats; 2 h after carrageenan,187.5 ± 9.0 g
same,Pain Threshold,rats; 3 h after carrageenan,178.3 ± 11.7 g
same,Increase in pain threshold,rats; 1 h,19.8%
same,Increase in pain threshold,rats; 2 h,38%
same,Increase in pain threshold,rats; 3 h,33.8%
